Results taken from the NIST ThermoML archive (doi:10.1021/acs.jced.8b00132).
Where “and” joins values, the source holds several entries; their conditions need not be identical. Equal entries are not always repeated. Numbers after ± are expanded uncertainties.

O=C(C(F)(F)C(F)(F)F)C(F)(C(F)(F)F)C(F)(F)F [dodecafluoro-2-methylpentan-3-one]
Details	thermal conductivity
330 K, 67724 kPa, Liquid, transient hot wire	0.07584 ± 0.0016 W/m/K
330.01 K, 117 kPa, Gas, hot wire	0.01411 ± 0.00069 W/m/K
330.01 K, 14125 kPa, Liquid, transient hot wire	0.05895 ± 0.0012 W/m/K
330.01 K, 14129 kPa, Liquid, transient hot wire	0.05898 ± 0.0012 W/m/K
330.02 K, 117 kPa, Gas, hot wire	0.01412 ± 0.00069 W/m/K
330.02 K, 36718 kPa, Liquid, transient hot wire	0.0672 ± 0.0014 W/m/K
330.02 K, 36720 kPa, Liquid, transient hot wire	0.06721 ± 0.0014 W/m/K
330.06 K, 57396 kPa, Liquid, transient hot wire	0.07315 ± 0.0015 W/m/K
330.06 K, 57404 kPa, Liquid, transient hot wire	0.07318 ± 0.0015 W/m/K
330.09 K, 27942 kPa, Liquid, transient hot wire	0.06426 ± 0.0013 W/m/K
330.09 K, 27945 kPa, Liquid, transient hot wire	0.06429 ± 0.0013 W/m/K
330.1 K, 8617 kPa, Liquid, transient hot wire	0.05649 ± 0.0012 W/m/K
330.1 K, 8619 kPa, Liquid, transient hot wire	0.0565 ± 0.0012 W/m/K
330.14 K, 4470 kPa, Liquid, transient hot wire	0.05444 ± 0.0011 W/m/K
330.14 K, 46576 kPa, Liquid, transient hot wire	0.07022 ± 0.0014 W/m/K
330.14 K, 46583 kPa, Liquid, transient hot wire	0.07015 ± 0.0014 W/m/K
330.15 K, 4473 kPa, Liquid, transient hot wire	0.05441 ± 0.0011 W/m/K
330.16 K, 20517 kPa, Liquid, transient hot wire	0.06186 ± 0.0013 W/m/K
330.16 K, 20518 kPa, Liquid, transient hot wire	0.06149 ± 0.0013 W/m/K
330.19 K, 67678 kPa, Liquid, transient hot wire	0.07583 ± 0.0016 W/m/K
330.2 K, 67695 kPa, Liquid, transient hot wire	0.07583 ± 0.0016 W/m/K
330.21 K, 178 kPa, Liquid, transient hot wire	0.05173 ± 0.0011 W/m/K
330.22 K, 178 kPa, Liquid, transient hot wire	0.05205 ± 0.0011 W/m/K
330.23 K, 180 kPa, Liquid, transient hot wire	0.05206 ± 0.0011 W/m/K
330.23 K, 36712 kPa, Liquid, transient hot wire	0.06716 ± 0.0014 W/m/K
330.23 K, 36715 kPa, Liquid, transient hot wire	0.06712 ± 0.0014 W/m/K
330.24 K, 180 kPa, Liquid, transient hot wire	0.05202 ± 0.0011 W/m/K
330.24 K, 14124 kPa, Liquid, transient hot wire	0.05892 ± 0.0012 W/m/K
330.24 K, 14130 kPa, Liquid, transient hot wire	0.05892 ± 0.0012 W/m/K
330.26 K, 57370 kPa, Liquid, transient hot wire	0.07313 ± 0.0015 W/m/K
330.26 K, 57385 kPa, Liquid, transient hot wire	0.07314 ± 0.0015 W/m/K
330.31 K, 27940 kPa, Liquid, transient hot wire	0.06422 ± 0.0013 W/m/K
330.31 K, 27943 kPa, Liquid, transient hot wire	0.06422 ± 0.0013 W/m/K
330.33 K, 8610 kPa, Liquid, transient hot wire	0.05657 ± 0.0012 W/m/K
330.33 K, 8620 kPa, Liquid, transient hot wire	0.05647 ± 0.0012 W/m/K
330.35 K, 46566 kPa, Liquid, transient hot wire	0.07011 ± 0.0014 W/m/K
330.35 K, 46569 kPa, Liquid, transient hot wire	0.07013 ± 0.0014 W/m/K
330.38 K, 4468 kPa, Liquid, transient hot wire	0.05439 ± 0.0011 W/m/K
330.39 K, 4469 kPa, Liquid, transient hot wire	0.0544 ± 0.0011 W/m/K
330.39 K, 20517 kPa, Liquid, transient hot wire	0.06147 ± 0.0013 W/m/K
330.4 K, 20518 kPa, Liquid, transient hot wire	0.06147 ± 0.0013 W/m/K
330.45 K, 36702 kPa, Liquid, transient hot wire	0.06713 ± 0.0014 W/m/K
330.45 K, 36716 kPa, Liquid, transient hot wire	0.06714 ± 0.0014 W/m/K
330.46 K, 179 kPa, Liquid, transient hot wire	0.052 ± 0.0011 W/m/K
330.47 K, 179 kPa, Liquid, transient hot wire	0.05202 ± 0.0011 W/m/K
330.48 K, 180 kPa, Liquid, transient hot wire	0.05201 ± 0.0011 W/m/K
330.48 K, 181 kPa, Liquid, transient hot wire	0.052 ± 0.0011 W/m/K
330.48 K, 14128 kPa, Liquid, transient hot wire	0.05889 ± 0.0012 W/m/K
330.48 K, 14134 kPa, Liquid, transient hot wire	0.05891 ± 0.0012 W/m/K
330.53 K, 27942 kPa, Liquid, transient hot wire	0.0642 ± 0.0013 W/m/K
330.54 K, 27944 kPa, Liquid, transient hot wire	0.06418 ± 0.0013 W/m/K
330.58 K, 8615 kPa, Liquid, transient hot wire	0.0564 ± 0.0012 W/m/K
330.58 K, 8617 kPa, Liquid, transient hot wire	0.05641 ± 0.0012 W/m/K
330.63 K, 4467 kPa, Liquid, transient hot wire	0.05435 ± 0.0011 W/m/K
330.63 K, 20513 kPa, Liquid, transient hot wire	0.06146 ± 0.0013 W/m/K
330.64 K, 4463 kPa, Liquid, transient hot wire	0.05433 ± 0.0011 W/m/K
330.64 K, 20514 kPa, Liquid, transient hot wire	0.06146 ± 0.0013 W/m/K
330.73 K, 179 kPa, Liquid, transient hot wire	0.05196 ± 0.0011 W/m/K and 0.05197 ± 0.0011 W/m/K
330.73 K, 181 kPa, Liquid, transient hot wire	0.05196 ± 0.0011 W/m/K and 0.05215 ± 0.0011 W/m/K
330.73 K, 14130 kPa, Liquid, transient hot wire	0.05885 ± 0.0012 W/m/K
330.74 K, 14134 kPa, Liquid, transient hot wire	0.0589 ± 0.0012 W/m/K
330.84 K, 8608 kPa, Liquid, transient hot wire	0.05637 ± 0.0012 W/m/K
330.84 K, 8609 kPa, Liquid, transient hot wire	0.05639 ± 0.0012 W/m/K
330.91 K, 4465 kPa, Liquid, transient hot wire	0.05432 ± 0.0011 W/m/K and 0.0543 ± 0.0011 W/m/K
331.01 K, 179 kPa, Liquid, transient hot wire	0.05176 ± 0.0011 W/m/K and 0.05194 ± 0.0011 W/m/K
331.01 K, 180 kPa, Liquid, transient hot wire	0.05194 ± 0.0011 W/m/K
331.01 K, 181 kPa, Liquid, transient hot wire	0.05193 ± 0.0011 W/m/K
331.09 K, 3942 kPa, Liquid, transient hot wire	0.05385 ± 0.0011 W/m/K
331.1 K, 3945 kPa, Liquid, transient hot wire	0.05411 ± 0.0011 W/m/K
331.21 K, 28078 kPa, Liquid, transient hot wire	0.06464 ± 0.0013 W/m/K
331.22 K, 20447 kPa, Liquid, transient hot wire	0.06133 ± 0.0013 W/m/K
331.22 K, 28080 kPa, Liquid, transient hot wire	0.06416 ± 0.0013 W/m/K
331.23 K, 20449 kPa, Liquid, transient hot wire	0.06095 ± 0.0013 W/m/K
331.24 K, 14112 kPa, Liquid, transient hot wire	0.05849 ± 0.0012 W/m/K
331.25 K, 14113 kPa, Liquid, transient hot wire	0.05865 ± 0.0012 W/m/K
331.28 K, 8580 kPa, Liquid, transient hot wire	0.05626 ± 0.0012 W/m/K
331.28 K, 8582 kPa, Liquid, transient hot wire	0.05648 ± 0.0012 W/m/K
331.31 K, 242 kPa, Liquid, transient hot wire	0.05138 ± 0.0011 W/m/K and 0.05151 ± 0.0011 W/m/K
331.36 K, 73 kPa, Liquid, transient hot wire	0.05184 ± 0.0011 W/m/K
331.36 K, 69235 kPa, Liquid, transient hot wire	0.07553 ± 0.0015 W/m/K
331.36 K, 69237 kPa, Liquid, transient hot wire	0.07531 ± 0.0015 W/m/K
331.37 K, 107 kPa, Liquid, transient hot wire	0.05182 ± 0.0011 W/m/K
331.37 K, 57734 kPa, Liquid, transient hot wire	0.07228 ± 0.0015 W/m/K
331.37 K, 57739 kPa, Liquid, transient hot wire	0.07238 ± 0.0015 W/m/K
